Measured values: PubChem BioAssay AID330 (DTP/NCI, 2004)
Where “and” joins values, the source holds several entries; their conditions need not be identical. Equal values may be shown once. Toxic doses and inconclusive results are not listed. Rule for the calls: active = survival T/C of 150% or more; inactive = T/C below 125% in these data.

Tested on: P388 leukemia ip, CD2F1 mice, survival T/C
Assay: NCI In Vivo Anticancer Drug Screen. Data for tumor model P388 Leukemia (intraperitoneal) in CD2F1 (CDF1) mice
Conditions: endpoint: median survival time, higher = longer survival
Procedure, shortened: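 Mice carrying the transplanted tumor received test compound or vehicle. Survival was recorded in each group, and the value is the treated-group measurement divided by that of the vehicle-treated control group.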

[1] = dose: 50.0 mg/kg/injection, schedule: Q01DX005 (ip), vehicle: Klucel (hydroxypropylcellulose) (HPC)
[2] = dose: 100.0 mg/kg/injection, schedule: Q01DX005 (ip), vehicle: Klucel (hydroxypropylcellulose) (HPC)
[3] = dose: 200.0 mg/kg/injection, schedule: Q01DX005 (ip), vehicle: Klucel (hydroxypropylcellulose) (HPC)
[4] = dose: 6.25 mg/kg/injection, schedule: Q01DX005 (ip), vehicle: saline with Tween-80
[5] = dose: 12.5 mg/kg/injection, schedule: Q01DX005 (ip), vehicle: saline with Tween-80
[6] = dose: 50.0 mg/kg/injection, schedule: Q01DX005 (ip), vehicle: saline with Tween-80
[7] = dose: 100.0 mg/kg/injection, schedule: Q01DX005 (ip), vehicle: saline with Tween-80
[8] = dose: 200.0 mg/kg/injection, schedule: Q01DX005 (ip), vehicle: saline with Tween-80
[9] = dose: 25.0 mg/kg/injection, schedule: Q01DX009 (ip), vehicle: Klucel (hydroxypropylcellulose) (HPC)
[10] = dose: 50.0 mg/kg/injection, schedule: Q01DX009 (ip), vehicle: Klucel (hydroxypropylcellulose) (HPC)
[11] = dose: 25.0 mg/kg/injection, schedule: Q01DX005 (ip), vehicle: saline with Tween-80
[12] = dose: 60.0 mg/kg/injection, schedule: Q01DX005 (ip), vehicle: saline with Tween-80
[13] = dose: 120.0 mg/kg/injection, schedule: Q01DX005 (ip), vehicle: saline with Tween-80
[14] = dose: 240.0 mg/kg/injection, schedule: Q01DX005 (ip), vehicle: saline with Tween-80
[15] = dose: 50.0 mg/kg/injection, schedule: Q01DX009 (ip), vehicle: saline
[16] = dose: 100.0 mg/kg/injection, schedule: Q01DX009 (ip), vehicle: saline
[17] = dose: 200.0 mg/kg/injection, schedule: Q01DX009 (ip), vehicle: saline
[18] = dose: 50.0 mg/kg/injection, schedule: Q01DX009 (ip), vehicle: saline with Tween-80
[19] = dose: 100.0 mg/kg/injection, schedule: Q01DX009 (ip), vehicle: saline with Tween-80
[20] = dose: 200.0 mg/kg/injection, schedule: Q01DX009 (ip), vehicle: saline with Tween-80
[21] = dose: 8.75 mg/kg/injection, schedule: Q01DX005 (ip), vehicle: Klucel (hydroxypropylcellulose) (HPC)
[22] = dose: 17.5 mg/kg/injection, schedule: Q01DX005 (ip), vehicle: Klucel (hydroxypropylcellulose) (HPC)
[23] = dose: 35.0 mg/kg/injection, schedule: Q01DX005 (ip), vehicle: Klucel (hydroxypropylcellulose) (HPC)

Measured: T/C

CC(C)OCCCNCC(=O)Nc1ccc(S(=O)(=O)c2ccc(NC(=O)CNCCCOC(C)C)cc2)cc1
inactive: [1] 95 % of control | [2] 100 % of control | [3] 100 % of control

C=C(Br)S(=O)(=O)OCCCl
inactive: [4] 105 % of control | [5] 104 % of control

COC(=O)c1cccc2c[n+]3c(cc12)-c1[nH]c2cc(OC)ccc2c1CC3
inactive: [6] 100 % of control | [7] 99 % of control | [8] 108 % of control

N#CC(Br)(C#N)Cc1ccccc1
inactive: [9] 87 % of control | [10] 100 % of control

CCCn1c2c(c3ccccc3c1=O)C(=O)c1ccccc1-2
inactive: [4] 95 % of control | [5] 88 % of control | [11] 93 % of control

Cc1sc2ccccc2c(=O)c1CO
inactive: [12] 97 % of control | [13] 97 % of control | [14] 97 % of control

CN=C(NC)c1ccc(NC(=O)/C=C/C(=O)Nc2ccc(C(=NC)NC)cc2)cc1
inactive: [5] 101 % of control | [11] 99 % of control | [6] 98 % of control and 103 % of control

CCOP(=O)(CC1OCC2(CO1)COC(CP(=O)(OCC)OCC)OC2)OCC (configuration not stated)
inactive: dose: 12.5 mg/kg/injection, schedule: Q01DX009 (ip), vehicle: saline 87 % of control | dose: 25.0 mg/kg/injection, schedule: Q01DX009 (ip), vehicle: saline 94 % of control | [15] 101 % of control and 92 % of control | [16] 106 % of control | [17] 100 % of control

O=c1cc(NC2OC(CO)C(O)C(O)C2O)[nH]c(=O)[nH]1 (configuration not stated)
inactive: [12] 96 % of control | [13] 102 % of control | [14] 104 % of control

COC(=O)N1C=Cc2ccccc2C1(C#N)C(=S)SC (configuration not stated)
inactive: [6] 102 % of control | [7] 93 % of control | [8] 91 % of control

Cc1cc(=O)oc2cc(OC(=O)N(C)C)c(Cl)cc12
inactive: [18] 100 % of control | [19] 101 % of control | [20] 101 % of control

CCCC12C=C(OC)C(=O)C=C1OC(c1ccc3c(c1)OCO3)C2C (configuration not stated)
inactive: [21] 106 % of control | [22] 104 % of control | [23] 104 % of control

CN1CCC(/C(=N/O)c2ccccc2)(c2ccccc2)CC1
inactive: dose: 50.0 mg/kg/injection, schedule: Q01DX005 (ip), vehicle: Klucel + Tween-80 98 % of control | dose: 100.0 mg/kg/injection, schedule: Q01DX005 (ip), vehicle: Klucel + Tween-80 91 % of control | dose: 200.0 mg/kg/injection, schedule: Q01DX005 (ip), vehicle: Klucel + Tween-80 91 % of control

CC[C@@H]1C[C@@H]2CN3CCc4c([nH]c5ccc(OC)cc45)C(COC(=O)c4ccc(OC)c(OC)c4)(C2)C13
inactive: dose: 0.5 mg/kg/injection, schedule: Q01DX009 (ip), vehicle: Klucel (hydroxypropylcellulose) (HPC) 102 % of control | dose: 1.0 mg/kg/injection, schedule: Q01DX009 (ip), vehicle: Klucel (hydroxypropylcellulose) (HPC) 104 % of control | dose: 2.0 mg/kg/injection, schedule: Q01DX009 (ip), vehicle: Klucel (hydroxypropylcellulose) (HPC) 108 % of control | dose: 4.0 mg/kg/injection, schedule: Q01DX009 (ip), vehicle: Klucel (hydroxypropylcellulose) (HPC) 102 % of control

CC1CCCCN1C=C1C(=O)OC(C)(C)OC1=O (configuration not stated)
inactive: dose: 60.0 mg/kg/injection, schedule: Q01DX005 (ip), vehicle: Klucel (hydroxypropylcellulose) (HPC) 95 % of control | dose: 120.0 mg/kg/injection, schedule: Q01DX005 (ip), vehicle: Klucel (hydroxypropylcellulose) (HPC) 96 % of control

Cc1oc(-c2ccc(F)cc2)nc1C(N)=O
inactive: dose: 100.0 mg/kg/injection, schedule: Q01DX001 (ip), vehicle: Klucel (hydroxypropylcellulose) (HPC) 97 % of control | dose: 200.0 mg/kg/injection, schedule: Q01DX001 (ip), vehicle: Klucel (hydroxypropylcellulose) (HPC) 94 % of control | dose: 400.0 mg/kg/injection, schedule: Q01DX001 (ip), vehicle: Klucel (hydroxypropylcellulose) (HPC) 101 % of control

C=CC(=NC(C)C)Nc1ccccc1
inactive: dose: 1.56 mg/kg/injection, schedule: Q01DX009 (ip), vehicle: saline 112 % of control | dose: 3.12 mg/kg/injection, schedule: Q01DX009 (ip), vehicle: saline 105 % of control | dose: 6.25 mg/kg/injection, schedule: Q01DX009 (ip), vehicle: saline 104 % of control and 113 % of control

CCCC[As](CCCC)SC1OC(C2COC(C)(C)O2)C2OC(C)(C)OC12 (configuration not stated)
inactive: dose: 0.78 mg/kg/injection, schedule: Q01DX009 (ip), vehicle: water 101 % of control | dose: 1.56 mg/kg/injection, schedule: Q01DX009 (ip), vehicle: water 117 % of control | dose: 3.13 mg/kg/injection, schedule: Q01DX009 (ip), vehicle: distilled water + Tween-80 122 % of control | dose: 3.13 mg/kg/injection, schedule: Q01DX009 (ip), vehicle: water 101 % of control | dose: 6.25 mg/kg/injection, schedule: Q01DX009 (ip), vehicle: distilled water + Tween-80 96 % of control | dose: 6.25 mg/kg/injection, schedule: Q01DX009 (ip), vehicle: water 111 % of control | dose: 12.5 mg/kg/injection, schedule: Q01DX009 (ip), vehicle: distilled water + Tween-80 123 % of control | dose: 25.0 mg/kg/injection, schedule: Q01DX009 (ip), vehicle: distilled water + Tween-80 88 % of control

Cc1ccc(C2(C(=O)C=[N+]=[N-])OC2(C)C)cc1 (configuration not stated)
inactive: [11] 99 % of control | [6] 99 % of control | [7] 115 % of control | [8] 108 % of control

Clc1cc2c(nn1)-c1ccccc1C2
inactive: [6] 100 % of control | [7] 105 % of control | [8] 100 % of control

Nc1ccc(-c2nc(N)c3[nH]cnc3n2)cc1
inactive: dose: 12.5 mg/kg/injection, schedule: Q01DX005 (ip), vehicle: suspension in saline 97 % of control | dose: 25.0 mg/kg/injection, schedule: Q01DX005 (ip), vehicle: suspension in saline 102 % of control | dose: 50.0 mg/kg/injection, schedule: Q01DX005 (ip), vehicle: suspension in saline 100 % of control | dose: 100.0 mg/kg/injection, schedule: Q01DX005 (ip), vehicle: suspension in saline 99 % of control

COC(=O)c1ccccc1N=C/C(Cl)=C(/Cl)C(=O)O
inactive: dose: 6.25 mg/kg/injection, schedule: Q01DX009 (ip), vehicle: Klucel (hydroxypropylcellulose) (HPC) 100 % of control and 110 % of control and 96 % of control | dose: 12.5 mg/kg/injection, schedule: Q01DX009 (ip), vehicle: Klucel (hydroxypropylcellulose) (HPC) 100 % of control and 111 % of control and 117 % of control | [9] 113 % of control and 118 % of control and 121 % of control | [10] 113 % of control and 116 % of control and 119 % of control

CCOC(=O)c1cnc2c(cnn2CC)c1NN=C(C)C
inactive: dose: 66.0 mg/kg/injection, schedule: Q04DX003 (ip), vehicle: saline 109 % of control | dose: 100.0 mg/kg/injection, schedule: Q04DX003 (ip), vehicle: saline 109 % of control | dose: 150.0 mg/kg/injection, schedule: Q04DX003 (ip), vehicle: saline 104 % of control

CCCCCCCCCCCCCCCCOc1ccc(C(=O)O)cc1S(=O)(=O)N/N=c1/sc2cc(Cl)cc(Cl)c2n1C
inactive: [15] 88 % of control | [16] 93 % of control | [17] 86 % of control

COc1ccc2c(c1)[C@H]1[C@H]([C@H]3O[C@@H]1c1ccccc13)S(=O)N2 (some centres not stated)
inactive: [1] 95 % of control | [2] 96 % of control | [3] 92 % of control

NC(CO)C(=O)NCCS(=O)(=O)O (configuration not stated)
inactive: dose: 60.0 mg/kg/injection, schedule: Q01DX005 (ip), vehicle: saline 104 % of control | dose: 120.0 mg/kg/injection, schedule: Q01DX005 (ip), vehicle: saline 99 % of control | dose: 240.0 mg/kg/injection, schedule: Q01DX005 (ip), vehicle: saline 99 % of control

CC1C(c2ccc3c(c2)OCO3)CC(Cl)CC12C=C1OCOC1=CC2=O (configuration not stated)
inactive: [21] 101 % of control | [22] 101 % of control | [23] 105 % of control

CCCCC(O)(CCCC)/C(C)=N/O
inactive: [18] 94 % of control | [19] 91 % of control | [20] 87 % of control
